Here are results for 67 molecules from patent publication US12581252B2, “Substituted pyrrolo[3,4-b]pyridines as PI3K-α inhibitors” (Relay Therapeutics, Inc., priority 2020, dated 2026).

A value given as a limit tells only on which side of the number the result lay.

In the experiment the target is H1047R PIK3CA enzyme (Homo sapiens, UniProt P42336, H1047R). Description: ADP-Glo Biochemical PIK3CA Kinase Assay. In general terms: ADP-Glo turns the ADP formed in a reaction into a luminescent signal.
Chain of H1047R PIK3CA enzyme (P42336 whole entry H1047R): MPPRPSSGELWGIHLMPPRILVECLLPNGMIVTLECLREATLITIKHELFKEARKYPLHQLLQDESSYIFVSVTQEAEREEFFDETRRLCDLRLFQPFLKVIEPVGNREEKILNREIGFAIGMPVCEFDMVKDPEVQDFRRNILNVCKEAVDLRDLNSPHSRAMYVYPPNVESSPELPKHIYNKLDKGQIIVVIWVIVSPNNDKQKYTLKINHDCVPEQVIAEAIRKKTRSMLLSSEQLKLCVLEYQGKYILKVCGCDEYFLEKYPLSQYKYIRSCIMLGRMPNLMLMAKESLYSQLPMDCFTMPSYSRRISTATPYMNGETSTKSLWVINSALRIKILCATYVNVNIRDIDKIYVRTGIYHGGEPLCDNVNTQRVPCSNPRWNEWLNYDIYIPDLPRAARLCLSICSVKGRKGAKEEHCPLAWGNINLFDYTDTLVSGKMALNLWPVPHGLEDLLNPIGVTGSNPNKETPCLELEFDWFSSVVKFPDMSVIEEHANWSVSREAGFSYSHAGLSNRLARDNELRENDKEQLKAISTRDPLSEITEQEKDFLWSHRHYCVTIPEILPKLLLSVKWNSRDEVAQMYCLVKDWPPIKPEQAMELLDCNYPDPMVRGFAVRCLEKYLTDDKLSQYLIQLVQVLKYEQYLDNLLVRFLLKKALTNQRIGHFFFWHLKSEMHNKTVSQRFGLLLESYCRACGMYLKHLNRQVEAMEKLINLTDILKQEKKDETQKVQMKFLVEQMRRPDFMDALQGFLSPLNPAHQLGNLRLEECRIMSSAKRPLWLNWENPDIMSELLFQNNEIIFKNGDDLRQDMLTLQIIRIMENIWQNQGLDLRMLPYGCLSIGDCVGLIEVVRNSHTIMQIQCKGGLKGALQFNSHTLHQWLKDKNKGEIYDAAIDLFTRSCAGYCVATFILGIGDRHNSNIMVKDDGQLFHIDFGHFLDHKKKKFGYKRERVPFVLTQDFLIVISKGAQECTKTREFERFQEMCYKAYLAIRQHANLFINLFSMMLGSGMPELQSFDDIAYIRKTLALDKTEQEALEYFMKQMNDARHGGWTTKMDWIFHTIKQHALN
Chain of H1047R PIK3CA enzyme (P27986 whole entry partner): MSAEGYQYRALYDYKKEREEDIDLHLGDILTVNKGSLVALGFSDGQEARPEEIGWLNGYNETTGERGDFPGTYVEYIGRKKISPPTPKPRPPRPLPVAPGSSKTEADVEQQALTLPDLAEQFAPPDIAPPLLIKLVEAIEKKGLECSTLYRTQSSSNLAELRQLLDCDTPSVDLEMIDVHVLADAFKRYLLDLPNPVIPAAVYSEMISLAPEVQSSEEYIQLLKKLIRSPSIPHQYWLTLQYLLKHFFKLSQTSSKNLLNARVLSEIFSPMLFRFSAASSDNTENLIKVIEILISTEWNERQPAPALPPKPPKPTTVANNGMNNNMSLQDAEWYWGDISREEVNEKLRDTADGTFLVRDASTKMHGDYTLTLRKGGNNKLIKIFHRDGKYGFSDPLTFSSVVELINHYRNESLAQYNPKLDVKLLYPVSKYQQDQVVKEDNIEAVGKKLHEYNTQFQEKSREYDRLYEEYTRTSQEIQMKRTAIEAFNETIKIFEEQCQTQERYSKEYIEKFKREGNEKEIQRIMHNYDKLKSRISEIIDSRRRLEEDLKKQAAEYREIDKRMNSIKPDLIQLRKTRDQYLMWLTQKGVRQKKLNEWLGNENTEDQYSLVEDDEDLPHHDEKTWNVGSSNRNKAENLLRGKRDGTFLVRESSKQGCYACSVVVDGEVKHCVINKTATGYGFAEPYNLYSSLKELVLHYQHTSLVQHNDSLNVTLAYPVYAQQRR
One may read the IC50 as the concentration needed to halve the response being measured. Read a low IC50 as inhibition by little substance. Turning to `O=C1NC(c2cc(F)ccc2Cl)c2c(NC(=O)c3[nH]nnc3CC(F)(F)F)cccc21` (stereo not shown) [Compound I-2194], the concentration for half-maximal inhibition (IC50) lay in the range of 10 to 100 µM. As for `CC(C)(C)CCC1NC(=O)c2cccc(NC(=O)c3cc(F)cc(C(F)(F)F)c3)c21` (stereo not shown) [Compound I-2196], the IC50 fell in the range of 1 to 10 µM. `CC(O)C(CC(=O)Nc1cccc2c1C(c1cc(F)ccc1Cl)NC2=O)C(C)C(F)(F)F` (stereo not shown) [Compound I-2198] yielded a 50% inhibitory concentration (IC50) of 10 to 100 µM. `CN1CCO/C1=N\c1cc(NC(=O)c2cc(F)cc(C(F)(F)F)c2)c2c(c1)C(=O)NC2c1cc(F)ccc1Cl` (stereo not shown) [Compound I-2202] registered a concentration for half-maximal inhibition (IC50) of 0.1 to 0.5 µM. The result for `O=C1NC(c2cc(F)ccc2Cl)c2c(NC(=O)C34CC(CO)(C3)C4)cccc21` (stereo not shown) [Compound I-2219] reads 10 to 100 µM; that for `O=C1NC(c2cc(F)ccc2Cl)c2c(NC(=O)N3CCNC(C(F)(F)F)C3)cccc21` (stereo not shown) [Compound I-2222], 10 to 100 µM.

As to `O=C1NC(c2cc(F)ccc2Cl)c2c(NC(=O)c3noc4c3COCC4)cccc21` (stereo not shown) [Compound I-2232], the IC50 fell in the range of 10 to 100 µM. As to `CC1(C)CCc2scc(C(=O)Nc3cccc4c3C(c3cc(F)ccc3Cl)NC4=O)c2C1` (stereo not shown) [Compound I-2235], the 50% inhibitory concentration (IC50) fell in the range of 1 to 10 µM. `O=C1NC(c2cc(F)ccc2Cl)c2c(NC(=O)c3noc4c3CCCC4)cccc21` (stereo not shown) [Compound I-2238] came in with a 50% inhibitory concentration (IC50) of 1 to 10 µM.

Turning to `N#CCCN(C(=O)c1cc(F)cc(C(F)(F)F)c1)c1cc(O)cc2c1C(c1cc(F)ccc1Cl)NC2=O` (stereo not shown) [Compound I-2251], the half-inhibitory concentration (IC50) lay within 10 to 100 µM. `O=C(Nc1cccc2c1C(c1cc(F)ccc1Cl)NC2=O)c1coc2c1COC2` (stereo not shown) [Compound I-2265]: the IC50 was in the range of 10 to 100 µM. As for `O=C(Nc1cccc2c1C(c1cc(F)ccc1Cl)NC2=O)c1csc2c1CCOC2` (stereo not shown) [Compound I-2266], the IC50 is 0.1 to 0.5 µM. Molecule `O=C(Nc1cc(-c2cn3ncnc3cn2)cc2c1C(c1cc(F)ccc1Cl)NC2=O)c1cc(F)cc(Cl)c1` (stereo not shown) [Compound I-2267] yielded an IC50 of 1 to 10 µM.

Consider `O=C1NC(c2cc(F)ccc2Cl)c2c(NC(=O)N3CCSc4ccccc43)cccc21` (stereo not shown) [Compound I-2284], for which the IC50 is 10 to 100 µM. Turning to `O=C1NC(c2cc(F)ccc2Cl)c2c(NC(=O)C34CCC(C(O)C(F)(F)F)(CC3)C4)cccc21` (stereo not shown) [Compound I-2285], the IC50 was in the range of 10 to 100 µM. Molecule `CC(C#N)c1cc(NC(=O)c2cc(F)cc(C(F)(F)F)c2)c2c(c1)C(=O)N[C@@H]2c1cc(F)ccc1Cl` (stereo partly shown) [Compound I-2289] returned an IC50 of 1 to 10 µM. `O=C1NC(c2cc(F)ccc2Cl)c2c(OCc3cc(F)cc(C(F)(F)F)c3)cccc21` (stereo not shown) [Compound I-2295] displayed an IC50 of 10 to 100 µM.

`O=C1NC(CO)(c2cccc(F)c2)c2c1cccc2-c1nc2cc(C(F)(F)F)cc(F)c2[nH]1` (stereo not shown) [Compound I-2296]: the IC50 lay in the range of 1 to 10 µM. In turn, `CN1CCN=C1Nc1cc(NC(=O)c2cc(F)cc(C(F)(F)F)c2)c2c(c1)C(=O)NC2c1cc(F)ccc1Cl` (stereo not shown) [Compound I-2298] yielded an IC50 of 0.1 to 0.5 µM. For `O=C1NC(c2cc(F)ccc2Cl)c2c(NC(=O)c3csc4cocc34)cccc21` (stereo not shown) [Compound I-2301], the IC50 lay in the range of 10 to 100 µM. As for `O=C1NC(c2cc(F)ccc2Cl)c2c(NC(=O)C3COC4CCCCC43)cccc21` (stereo not shown) [Compound I-2302], the IC50 fell in the range of 10 to 100 µM. The figure for `O=C1NC(c2cc(F)ccc2Cl)c2c(NC(=O)C34CC5CC(CC(C5)O3)C4)cccc21` (stereo not shown) [Compound I-2303] is 10 to 100 µM; for `O=C(Nc1cccc2c1C(c1cc(F)ccc1Cl)NC2=O)c1csc2c1CCNC2` (stereo not shown) [Compound I-2304] it is 10 to 100 µM; for `O=C1NC(c2cc(F)ccc2Cl)c2c(NC(=O)N3CCCc4ccccc4C3)cccc21` (stereo not shown) [Compound I-2305] it is 10 to 100 µM. The result for `O=C1NC(c2cc(F)ccc2Cl)c2c(NC(=O)N3CCCCc4ccccc43)cccc21` (stereo not shown) [Compound I-2306] reads 10 to 100 µM; that for `O=C1NC(c2cc(F)ccc2Cl)c2c(NC(=O)N3CCc4ccccc4C3)cccc21` (stereo not shown) [Compound I-2307], 10 to 100 µM. The molecule `O=C1NC(c2cc(F)ccc2Cl)c2c(NC(=O)N3CCc4ccccc4CC3)cccc21` (stereo not shown) [Compound I-2308] came in with an IC50 of 10 to 100 µM. `NC(=O)CCN(C(=O)c1cc(F)cc(C(F)(F)F)c1)c1cc(O)cc2c1C(c1cc(F)ccc1Cl)NC2=O` (stereo not shown) [Compound I-2309] registered an IC50 of 10 to 100 µM. For the molecule `O=C1NC(c2cc(F)ccc2Cl)c2c(NC(=O)n3nc(O)c4ccccc43)cccc21` (stereo not shown) [Compound I-2315], the IC50 is 1 to 10 µM. Molecule `O=C(Nc1ccc(C(F)(F)F)cc1)c1cccc2c1C(c1cc(F)ccc1Cl)NC2=O` (stereo not shown) [Compound I-2316] displayed a 50% inhibitory concentration (IC50) of 10 to 100 µM.

As for `COC(=O)C1CN(C(=O)Nc2cccc3c2C(c2cc(F)ccc2Cl)NC3=O)c2ccccc21` (stereo not shown) [Compound I-2317], the half-inhibitory concentration (IC50) fell in the range of 10 to 100 µM. In turn, `Nc1cc(NC(=O)c2cc(F)cc(C(F)(F)F)c2)c2c(c1)C(=O)NC2c1cccc(F)c1` (stereo not shown) [Compound I-2320] returned an IC50 of 0.5 to 1 µM.

With `O=C1NC(c2cc(F)ccc2Cl)c2c(NC(=O)N3CCC3c3ccccc3)cccc21` (stereo not shown) [Compound I-2321], the IC50 is 10 to 100 µM. `O=C(Nc1cccc2c1C(CC1CC=CC1)NC2=O)c1cc(F)cc(C(F)(F)F)c1` (stereo not shown) [Compound I-2322]: the IC50 fell in the range of 10 to 100 µM. With `O=C(Nc1cc(NC2=NCC3(CC3)O2)cc2c1C(c1cc(F)ccc1Cl)NC2=O)c1cc(F)cc(C(F)(F)F)c1` (stereo not shown) [Compound I-2327], the IC50 fell in the range of 0.1 to 0.5 µM. In turn, `O=C(Nc1cccc2c1C(c1nc(C(F)(F)F)cs1)NC2=O)c1cc(F)cc(C(F)(F)F)c1` (stereo not shown) [Compound I-2330] had a 50% inhibitory concentration (IC50) of 10 to 100 µM.

Molecule `O=C1NC(c2cc(F)ccc2Cl)c2c(NC(=O)N3CC(C(F)(F)F)Nc4ccccc43)cccc21` (stereo not shown) [Compound I-2339] showed an IC50 of 10 to 100 µM. The result for `O=C1NC(c2cc(F)ccc2Cl)c2c(NC(=O)N3CCSC(C(F)(F)F)C3)cccc21` (stereo not shown) [Compound I-2340] reads 10 to 100 µM. On to `O=C(Nc1cc(/N=C2\OC[C@H]3CCCN23)cc2c1C(c1cc(F)ccc1Cl)NC2=O)c1cc(F)cc(C(F)(F)F)c1` (stereo partly shown) [Compound I-2354], for which the half-inhibitory concentration (IC50) fell in the range of 0.1 to 0.5 µM. On to `O=C(Nc1cc(/N=C2\OC[C@@H]3CCCN23)cc2c1C(c1cc(F)ccc1Cl)NC2=O)c1cc(F)cc(C(F)(F)F)c1` (stereo partly shown) [Compound I-2355], for which the IC50 fell in the range of 0.1 to 0.5 µM. As for `CC1(C)COC(Nc2cc(NC(=O)c3cc(F)cc(C(F)(F)F)c3)c3c(c2)C(=O)NC3c2cc(F)ccc2Cl)=N1` (stereo not shown) [Compound I-2358], the concentration for half-maximal inhibition (IC50) fell in the range of 0.1 to 0.5 µM. In turn, `O=C(Nc1cccc2c1C(c1cc(F)ccc1Cl)NC2=O)c1cscc1C(F)(F)F` (stereo not shown) [Compound I-2361] had an IC50 of 1 to 10 µM. In the case of `O=C(CCc1ccccc1)Nc1cccc2c1C(c1cc(F)ccc1Cl)NC2=O` (stereo not shown) [Compound I-2362], the half-maximal inhibitory concentration (IC50) was in the range of 10 to 100 µM.

As for `O=C(Nc1cccc2c1C(c1cc(F)ccc1Cl)NC2=O)c1ccc(O)c(C(F)(F)F)c1` (stereo not shown) [Compound I-2363], the 50% inhibitory concentration (IC50) fell in the range of 10 to 100 µM.

Take `O=C(/C=C/c1ccccc1)Nc1cccc2c1C(c1cc(F)ccc1Cl)NC2=O` (stereo not shown) [Compound I-2372]: the 50% inhibitory concentration (IC50) lay within 10 to 100 µM. Consider `O=C1NC(c2cc(F)ccc2Cl)c2c(NC(=O)n3ncc4ccccc43)cccc21` (stereo not shown) [Compound I-2373], for which the IC50 lay within 0.1 to 0.5 µM. For `O=C1NC(c2cc(F)ccc2Cl)c2c(NC(=O)C3CCc4ccccc4CC3)cccc21` (stereo not shown) [Compound I-2374], the concentration for half-maximal inhibition (IC50) lay in the range of 10 to 100 µM. In the case of `O=C1NC(c2cc(F)ccc2Cl)c2c(NC(=O)N3CCCC34CCC4)cc(Br)cc21` (stereo not shown) [Compound I-2377], the IC50 was 0.5 to 1 µM.

For the molecule `Cc1nn(C(=O)Nc2cccc3c2C(c2cc(F)ccc2Cl)NC3=O)c2ccccc12` (stereo not shown) [Compound I-2380], the IC50 fell in the range of 0.5 to 1 µM. `Nc1nn(C(=O)Nc2cccc3c2C(c2cc(F)ccc2Cl)NC3=O)c2ccccc12` (stereo not shown) [Compound I-2381] had an IC50 of 0.1 to 0.5 µM.

For the molecule `O=C(Nc1cccc2c1C(c1cc(F)ccc1Cl)NC2=O)Nc1n[nH]c2ccccc12` (stereo not shown) [Compound I-2382], the IC50 lay in the range of 1 to 10 µM.

`CCCCc1ccc(Cl)c(C2NC(=O)c3cccc(NC(=O)c4cc(O)cc(C(F)(F)F)c4)c32)c1` (stereo not shown) [Compound I-2391]: the IC50 is 1 to 10 µM. In the case of `O=C1NC(c2cc(F)ccc2Cl)c2c(NC(=O)c3ncsc3Br)cccc21` (stereo not shown) [Compound I-2397], the half-inhibitory concentration (IC50) is 1 to 10 µM. The result for `O=C1NC(c2cc(F)ccc2Cl)c2c(NC(=O)N3CCC(C4CC4)C3)cccc21` (stereo not shown) [Compound I-2398] reads 10 to 100 µM; that for `N#Cc1cnn(-c2cc(NC(=O)N3C[C@H](O)c4cc(F)ccc43)c3c(c2)C(=O)N[C@H]3c2cc(F)ccc2Cl)c1` [Compound I-2403], at most 0.1 µM; that for `N#Cc1cnn(-c2cc(NC(=O)N3CC(O)c4cc(F)ccc43)c3c(c2)C(=O)NC3c2cc(F)ccc2Cl)c1` (stereo not shown) [Compound I-2404], 0.1 to 0.5 µM. The figure for `O=C1NC(c2cc(F)ccc2Cl)c2c(NC(=O)N3CCCC3C3CC3)cccc21` (stereo not shown) [Compound I-2408] is 10 to 100 µM; for `O=C1NC(c2cc(F)ccc2Cl)c2c(NC(=O)N3CC(O)(c4scnc4C(F)(F)F)C3)cccc21` (stereo not shown) [Compound I-2417] it is 10 to 100 µM.

Molecule `CCC1CCN(C(=O)Nc2cccc3c2C(c2cc(F)ccc2Cl)NC3=O)C1` (stereo not shown) [Compound I-2420] had an IC50 of 10 to 100 µM.

The molecule `O=C1N[C@@H](c2cc(F)ccc2Cl)c2c(NC(=O)N3CC[C@H]4CCCC[C@H]43)cccc21` [Compound I-2422] returned a half-maximal inhibitory concentration (IC50) of 1 to 10 µM. Turning to `O=C1NC(c2cc(F)ccc2Cl)c2c(NC(=O)N3CCCC34CCCC4)cc(Br)cc21` (stereo not shown) [Compound I-2424], the IC50 lay in the range of 0.5 to 1 µM. Regarding `N#Cc1cccc2c1CCN2C(=O)Nc1cccc2c1C(c1cc(F)ccc1Cl)NC2=O` (stereo not shown) [Compound I-2425], the IC50 was 10 to 100 µM. `N#Cc1ccc2c(c1)CCN2C(=O)Nc1cccc2c1C(c1cc(F)ccc1Cl)NC2=O` (stereo not shown) [Compound I-2426] had an IC50 of 10 to 100 µM.

The molecule `N#Cc1ccc2c(c1)N(C(=O)Nc1cccc3c1C(c1cc(F)ccc1Cl)NC3=O)CC2` (stereo not shown) [Compound I-2427] had an IC50 of 1 to 10 µM. `O=C1NC(c2cc(F)ccc2Cl)c2c(NC(=O)N3CCSC3)cccc21` (stereo not shown) [Compound I-2428] showed an IC50 of 10 to 100 µM.

`O=C1NC(c2cc(F)ccc2Cl)c2c(NC(=O)N3CC4C5CCC(C5)C43)cccc21` (stereo not shown) [Compound I-2429] showed a concentration for half-maximal inhibition (IC50) of 10 to 100 µM. The figure for `O=C1NC(c2cc(F)ccc2Cl)c2c(NC(=O)N3CCCC34CCCCC4)cccc21` (stereo not shown) [Compound I-2430] is 0.5 to 1 µM.
